# Experimental data as given in PMC7615676, “Short-course combination treatment for experimental chronic Chagas disease” (Science translational medicine, 2023).
# Like-named read-outs stand apart in the source and are kept apart here.
# Columns and labels:
# [1] = molecular target: T. cruzi complex III (epimastigote lysates) (Trypanosoma cruzi, UniProt Q9T479); test: T. cruzi complex III assay; format: biochemical; settings: decylubiquinol substrate
# Experimental: Complex III activity within these lysates was monitored in the presence and absence of compound 3, compound 5 and related analogues from this series, using decylubiquinol as a pseudo-substrate ([43]).
# Measurement of complex III activity and inhibition were performed as described previously ([43]).
# FaSSIF solubility assay = format: physicochemical; settings: pH 6.5, 4 h
# Experimental: Solubility of test compounds in fasted simulated intestinal fluid (FaSSIF) was determined at pH 6.5 after 4 h equilibration at rt. An amount of1 mL of FaSSIF buffer (3 mM sodium taurocholate, 0.75 mM lecithin in sodium phosphate buffer at pH 6.5) was added to manually weighed 1 mg of solid compound in a 2 mL HPLC autosampler vial. The resulting suspension was shaken at 900 rpm for 4 h at rt and then transferred to a Multiscreen HTS, 96-well solubility filter plate. The residual solid was removed by filtration. The supernatant solution was quantified by HPLC−UV using single-point calibration of a known concentration of the compound in DMSO. The dynamic range of the assay was 1−1000 μg/mL.
# [2] = intrinsic clearance in human liver microsomes; format: in vitro ADME; settings: for half-life at 0.5 μM: read-out: T 1/2 human
# Experimental: Immediately at time zero and at several serial times points up to 30 min, an aliquot of the incubation mixture was removed and mixed with acetonitrile to stop the reaction. Internal standard was added to all samples, the samples centrifuged to sediment precipitated protein and the plates then sealed prior to HPLC-MS/MS analysis. Metabolic stability expressed as a percentage of the parent molecule was calculated using the peak area ratio (compound peak area/internal standard peak area) of different compounds remaining after each incubation time compared to time zero of the incubation. The half-life (t1/2) was calculated using the following equation: t1/2=−ln(2)/k, where k is the turn-over rate constant of the ln (percent remaining) vs time regression.
# CLint was calculated from the half-life (t1/2) using the following equations:
# CLint (ml/min/g liver) = (0.693/(t1/2) x (ml of incubation/mg microsomal protein) x (mg microsomal protein/g liver).
# [3] = plasma protein binding, equilibrium dialysis; format: in vitro ADME; settings: pH 7.4, mouse plasma, read-out: Mouse PPB % (converted)
# Experimental: In vitro plasma protein binding was measured in mouse and human plasma using equilibrium dialysis at a nominal concentration of 2 μM. The RED inserts were placed in the 48 wells of the Teflon Plate (Pierce). Samples were prepared by mixing the test compound with plasma at the appropriate concentrations to yield a final drug concentration of 2 μM. Triplicate aliquots of plasma containing compounds at a concentration of 2 μM were pipetted to plasma side (red) of the insert, and PBS (phosphate buffered saline) pH 7.4 was placed into the receiver side (white) of the insert. The plate was covered with the sealing tape and incubated in a 37 °C orbital shaker water bath at approximately 150 rpm for 4 h. Following incubation, samples were prepared in a mixed matrix configuration. Aliquots of samples were pipetted into 96-well plates, and precipitation buffer was added to protein precipitate the samples. Samples were vortexed to mix, then centrifuged for 15 min at 3700 rpm and 4 °C. The supernatant was assayed directly by LC−MS/MS. The following equation was used to calculate the percentage bound drug fraction using this equilibrium dialysis method
# % unbound = (buffer chamber]/[plasma chamber) x100
# [4] = tested on: T. cruzi culture derived trypomastigotes, strain Silvio X10/7 A1; test: trypomastigote assay; format: cell-based; settings: Trypanosoma cruzi
# Experimental: Trypomastigote assays using strain Silvio X10/7 subclone A1 were carried out as described in ([19]). Parasite culture and potency determinations for panel of strains were performed as in ([19]). Strains used were M6241 clone 6 (DTU III), ERA clone 2 (DTU IV), PAH179 clone 5 (DTU V) and CL Brener-Luciferase (PpyRE9h-expressing T. cruzi, same strain that is used in animal model studies ([67])) (DTU VI). […] For Y strain compound exposure time was 3 days. Rate-of-kill assays were carried out as described in ([39]).
# Property Forecast Index = format: physicochemical; settings: number of aromatic rings + ChromLogD at pH 7.4
# [5] = tested on: intracellular T. cruzi amastigotes, strain Silvio X10/7 A1; test: intracellular T. cruzi amastigote potency assay; format: cell-based; settings: Trypanosoma cruzi
# [6] = tested on: intracellular T. cruzi Silvio X10/7 A1 in Vero cells; test: washout outgrowth assay; format: cell-based, Trypanosoma cruzi; settings: for relapse day after the end of treatment: 50× EC50 for five days
# Experimental: Washout outgrowth assay: Vero cells were infected overnight in T600 flasks at a multiplicity of infection (MOI) 5 with T. cruzi Silvio X10/7 A1 trypomastigotes, followed by washing of the Vero monolayer to remove free trypomastigotes. 24 hours later the monolayer was trypsinised, 5.3 x 10^6 Vero cells were plated in T75 tissue culture flasks (in 20 ml MEM-Glutamax (ThermoFisher), 1% Fetal Calf Serum (FCS)), and treatment was started. For ten-day treatments, medium with compounds was replaced after the initial 5 days. For 16 day treatments the compounds were replaced every four days. For compound washout, all medium was aspirated, and flasks were washed three times with 10 ml serum-free MEM medium followed by a final aspiration and addition of 20 ml MEM-Glutamax (ThermoFisher) supplemented with 1% FCS. The cultures were then maintained until trypomastigotes were detected by light microscopy. Medium was replaced twice weekly and prior to each medium replacement microscopic evaluation was carried out (five fields per flask) for up to 60 days post washout. Robustness of the data was confirmed by profiling multiple compounds from the pyrrolopyrimidine series in a single experiment (compounds 2,3 and 4 in Fig. 2 and Fig. S17) as well as comparing results from independent experiments (compound 2 in Fig. 2, Fig. S5 and Fig. S7).
# [7] = read-out: Trypomastigotes pEC50 (converted)
# [8] = intracellular amastigotes Silvio X10/7 A1, 96 h, ± SD, min. three experiments, read-out: Amastigotes pEC50 (converted)
# Sequence of T. cruzi complex III (epimastigote lysates) (Q9T479 entry or part of it, one chain of several): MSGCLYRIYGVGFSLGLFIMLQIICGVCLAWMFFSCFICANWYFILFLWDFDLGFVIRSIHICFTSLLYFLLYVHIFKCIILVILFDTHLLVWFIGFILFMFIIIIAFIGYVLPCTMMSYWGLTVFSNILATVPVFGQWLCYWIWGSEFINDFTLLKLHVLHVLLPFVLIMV
SMILES,IC50 [1],FaSSIF pH 6.5 (FaSSIF solubility assay),Cl int human [2],half-life at 0.5 μM [2],"fraction unbound at 4 h, 2 μM [3]",EC50 ([4]; read-out: Trypomastigotes EC50),"EC50 [4, 7]",PFI (Property Forecast Index),"EC50 [5, 8]",EC50 ([5]; read-out: Amastigotes EC50),relapse day after the end of treatment [6],relapse day after compound washout ([6]; ten-day treatment)
"COc1ccc(-c2c(C)[nH]c3nc(N)nc(C)c23)c(OC)c1 [Compound 4, 5-(2,4-Dimethoxyphenyl)-4,6-dimethyl-7H-pyrrolo[2,3-d]pyrimidin-2-amine]",0.006 ± 0.001 µM,107 µg/mL,0.8 ml/min/g liver,1.1 h,0.22,0.05 µM,0.0501 µM,6.1,0.0794 µM,0.08 µM,,
"O=C(Cn1ccnc1[N+](=O)[O-])NCc1ccccc1 [Benznidazole, reference compound]",,,,,,4 µM,3.98 µM,4.3,2 µM,2 µM,14 days,no relapse
"COc1cc(Cl)ccc1-c1c(C)[nH]c2nc(N)nc(C)c12 [Compound 3, 5-(4-Chloro-2-methoxyphenyl)-4,6-dimethyl-7H-pyrrolo[2,3-d]pyrimidin-2-amine]",0.002 ± 0.0003 µM,76 µg/mL,0.4 ml/min/g liver,> 2.32 h,0.03,0.01 µM,0.0126 µM,7.2,0.01 µM,0.01 µM,14 days,
"COc1cc(F)ccc1-c1c(C)[nH]c2nc(N)nc(C)c12 [Compound 2, 5-(4-Fluoro-2-methoxyphenyl)-4,6-dimethyl-7H-pyrrolo[2,3-d]pyrimidin-2-amine]",0.008 ± 0.001 µM,153 µg/mL,0.6 ml/min/g liver,1.6 h,0.18,0.03 µM,0.0316 µM,6.4,0.0501 µM,0.05 µM,14 days,
